Experimental data from US8613927B2, “High affinity human antibodies to human nerve growth factor” (Regeneron Pharmaceuticals, Inc., priority 2007, dated 2013).

Assays:
C57BL/6 mice = test: Post-operative incision pain model, mechanical allodynia in von Frey test; format: in vivo, mouse; details: Table 17
Protocol: Thermal hyperalgesia was studied in the Hargreaves' test and mechanical allodynia was tested in the von Frey test. In this latter test, mice were tested after being acclimated for 2-3 hours for 4 days in an apparatus with a wire mesh floor. The test was performed by applying, in ascending order, a series of von Frey hairs through the wire mesh onto the plantar surface of the hind paw with the incision. A response was considered positive if the paw was raised from the platform in response to application of the filament. Starting from the thinnest hair, each von Frey filament was applied up to five times until a response was observed.

[1] = tested on: circulating levels of neurotrophin-3 (NT-3); test: Serum NT-3 sandwich ELISA, mice of post incision pain model; format: in vivo, mouse; details: day 4, 25 mg/kg i.p., mean±std dev, limit of detection ~40 pg/ml
Excerpt: On day 4, after the behavioral tests from post incision pain model were completed, the mice's sera were collected and analyzed for circulating levels of neurotrophin-3 (NT-3) using a sandwich ELISA. The limit of detection (˜40 pg/ml) was defined as two standard deviations (2σ) above background with a minimum of five NT-3 standards to define the response to concentration curve.

C57BL/6 male mice = test: Seltzer model of neuropathic pain, Hargreaves' test; format: in vivo, mouse
Excerpt: Neuropathic pain. The mouse Seltzer model of neuropathic pain (Malmberg et al. (1998) Pain 76:215-222) was used with C57BL/6 male mice, in which a partial nerve injury was produced by tying a tight ligature with a 7-0 silk suture around approximately ⅓ to ½ the diameter of the sciatic nerve of one single thigh per mouse. Post-surgery, the mice were allowed to recover for at least two days and then they were studied for several weeks post-surgery for thermal hyperalgesia in the Hargreaves' test. Controls were sham-operated mice in which the sciatic nerve was exposed and elevated but not tied. Following surgery, the mice were tested at day […] and at day 7 post-surgery to confirm that the thermal hyperalgesia had developed.
Following the Seltzer surgery, mice were tested at days 5 and 7 post-surgery to confirm that the thermal hyperalgesia had developed.

[2] = target: Human NGF binding to human TrkA-hFc (Homo sapiens, UniProt P01138, DEL136-138/DEL208-209); test: BIACORE receptor blocking assay, free NGF bound to TrkA-hFc; details: percentage free NGF bound; NGF 10-25 nM with molar excess of antibody; NGF alone = 100%
Excerpt: (§1) To identify blocking antibodies, a receptor blocking assay was designed using a BIACORE™ 3000 instrument. Recombinant human TrkA-hFc and human p75-hFc proteins were amine-coupled to a CM5 chip to a density of about 5000-6000 RU.

[3] = target: Human NGF binding to human p75-hFc (Homo sapiens, UniProt P01138, DEL136-138/DEL208-209); test: BIACORE receptor blocking assay, free NGF bound to p75-hFc; details: percentage free NGF bound; NGF 10-25 nM with molar excess of antibody; NGF alone = 100%
Excerpt: as §1

Sequence of Human NGF binding to human TrkA-hFc (P01138 with tags, fused parts or gaps DEL136-138/DEL208-209): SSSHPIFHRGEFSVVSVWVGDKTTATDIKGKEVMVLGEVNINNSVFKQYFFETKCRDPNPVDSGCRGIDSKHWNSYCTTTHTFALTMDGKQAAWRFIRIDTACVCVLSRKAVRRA
Sequence of Human NGF binding to human p75-hFc (P01138 with tags, fused parts or gaps DEL136-138/DEL208-209): as above

REGN475: HCVR/LCVR SEQ ID NO:108/110 and mutant hIgG4 SEQ ID NO:543
Paw Withdrawal Threshold (C57BL/6 mice; 25 mg/kg i.p. on day 1 post-surgery, Baseline): 1.286 ± 0.074 g | Paw Withdrawal Threshold (C57BL/6 mice; 25 mg/kg i.p., 5 hr after treatment): 0.034 ± 0.009 g | Paw Withdrawal Threshold (C57BL/6 mice; 25 mg/kg i.p., 22 hr after treatment): 0.714 ± 0.074 g | Paw Withdrawal Threshold (C57BL/6 mice; 25 mg/kg i.p., 45 hr after treatment): 1.086 ± 0.184 g | Paw Withdrawal Threshold (C57BL/6 mice; 25 mg/kg i.p., 70 hr after treatment): 1.571 ± 0.437 g | Paw Withdrawal Threshold (C57BL/6 mice; 25 mg/kg i.p., Day 1 (post-surgery, before injection)): 0.010 ± 0.002 g | Serum NT-3 [1]: not detected | pain relief (C57BL/6 male mice; 50 mg/kg s.c. or i.p. at day 7 post-surgery, p<0.001-0.05): Significant pain relief was observed | mean percent change from Hargreaves baseline (C57BL/6 male mice; Table 25, 50 mg/kg s.c. at day 7, day 5 after surgery): −55.2 ± 3.5% | mean percent change from Hargreaves baseline (C57BL/6 male mice; Table 25, 50 mg/kg s.c. at day 7, day 7): −50.9 ± 4.3% | mean percent change from Hargreaves baseline (C57BL/6 male mice; Table 25, 50 mg/kg s.c. at day 7, day 8): 10.3 ± 14.1% | mean percent change from Hargreaves baseline (C57BL/6 male mice; Table 25, 50 mg/kg s.c. at day 7, day 9): 8.2 ± 7.2% | mean percent change from Hargreaves baseline (C57BL/6 male mice; Table 25, 50 mg/kg s.c. at day 7, day 12): −20.1 ± 4.3% | mean percent change from Hargreaves baseline (C57BL/6 male mice; Table 25, 50 mg/kg s.c. at day 7, day 15): −14.1 ± 6.1% | mean percent change from Hargreaves baseline (C57BL/6 male mice; Table 25, 50 mg/kg s.c. at day 7, day 19): 3.0 ± 10.9% | mean percent change from Hargreaves baseline (C57BL/6 male mice; Table 25, 50 mg/kg s.c. at day 7, day 22): −13.7 ± 13.4% | mean percent change from Hargreaves baseline (C57BL/6 male mice; Table 25, 50 mg/kg s.c. at day 7 post-surgery, Baseline): 0.0 ± 0.0% | mean percent change from Hargreaves baseline (C57BL/6 male mice; Table 26, 50 mg/kg i.p. at day 7, day 5 after surgery): −58.7 ± 2.3% | mean percent change from Hargreaves baseline (C57BL/6 male mice; Table 26, 50 mg/kg i.p. at day 7, day 7): −61.7 ± 2.7% | mean percent change from Hargreaves baseline (C57BL/6 male mice; Table 26, 50 mg/kg i.p. at day 7, day 8): −8.2 ± 16.1% | mean percent change from Hargreaves baseline (C57BL/6 male mice; Table 26, 50 mg/kg i.p. at day 7, day 9): −7.9 ± 9.6% | mean percent change from Hargreaves baseline (C57BL/6 male mice; Table 26, 50 mg/kg i.p. at day 7, day 12): −0.1 ± 22.8% | mean percent change from Hargreaves baseline (C57BL/6 male mice; Table 26, 50 mg/kg i.p. at day 7, day 15): −10.8 ± 18.0% | mean percent change from Hargreaves baseline (C57BL/6 male mice; Table 26, 50 mg/kg i.p. at day 7 post-surgery, Baseline): 0.0 ± 0.0%

B1: p75-hFc: soluble receptorbody: extracellular domain of human p75 fused with Fc portion of human IgG1 (protein)
chain: KEACPTGLYTHSGECCKACNLGEGVAQPCGANQTVCEPCLDSVTFSDVVSATEPCKPCTECVGLQSMSAPCVEADDAVCRCAYGYYQDETTGRCEACRVCEAGSGLVFSCQDKQNTVCEECPDGTYSDEANHVDPCLPCTVCEDTERQLRECTRWADAECEEIPGRWITRSTPPEGSDSTAPSTQEPEAPPEQDLIASTVAGVVTTVMGSSQPVVTRGTTDN
modifications: left off: a dimerising Fc or GST
notes: soluble receptorbody: extracellular domain of human p75 fused with Fc portion of human IgG1
% Binding TrkA-hFc [2]: 3% | % Binding p75-hFc [3]: 5%

B2: TrkA-hFc: soluble receptorbody: extracellular domain of human TrkA fused with Fc portion of human IgG1 (protein)
chain: AAPCPDACCPHGSSGLRCTRDGALDSLHHLPGAENLTELYIENQQHLQHLELRDLRGLGELRNLTIVKSGLRFVAPDAFHFTPRLSRLNLSFNALESLSWKTVQGLSLQELVLSGNPLHCSCALRWLQRWEEEGLGGVPEQKLQCHGQGPLAHMPNASCGVPTLKVQVPNASVDVGDDVLLRCQVEGRGLEQAGWILTELEQSATVMKSGGLPSLGLTLANVTSDLNRKNVTCWAENDVGRAEVSVQVNVSFPASVQLHTAVEMHHWCIPFSVDGQPAPSLRWLFNGSVLNETSFIFTEFLEPAANETVRHGCLRLNQPTHVNNGNYTLLAANPFGQASASIMAAFMDNPFEFNPEDPIPVSFSPVDTNSTSGDPVEKKDETPFGVSVAVG
modifications: left off: a dimerising Fc or GST
notes: soluble receptorbody: extracellular domain of human TrkA fused with Fc portion of human IgG1
% Binding TrkA-hFc [2]: 10% | % Binding p75-hFc [3]: 15%
